Experimental data published in article PMC11298173 (Drug Design, Development and Therapy, 2024).

Key:
[1] = NEF-105 study: budesonide plasma pharmacokinetics; assay type: in vivo; conditions: human, po
patients with IgAN = conditions: TESTING trial, at 3 months, diminishing over time; cited from earlier work

half-life [1] [h] | SMILES | Effect on proteinuria vs placebo (patients with IgAN)
~5 | CCCC1O[C@@H]2C[C@H]3[C@@H]4CCC5=CC(=O)C=C[C@]5(C)[C@H]4[C@@H](O)C[C@]3(C)[C@]2(C(=O)CO)O1 (some centres unmarked) [budesonide] | –
– | C[C@H]1C[C@@H]2[C@H]([C@@H](O)C[C@@]3(C)[C@H]2CC[C@]3(O)C(=O)CO)[C@@]2(C)C=CC(=O)C=C12 [methylprednisolone] | substantial effect
